The text below walks through data of US20090104124A1, “Paramagnetic Complexes with Pendant Crown Compounds Showing Improved Targeting- Specificity as MRI Contrast Agents” (priority 2007, published 2009).

Series [1] in a line: 1H NMRD profiles (water proton relaxivity). To be noted: for D: 25° C., pH 6.9, fits of NMRD profile and 17O NMR. It counts as physicochemical. From the text: (§1) Measuring the relaxation rates of an abundant nuclear species as a function of the magnetic field over a wide range is called relaxometry. A relaxometry profile is a plot of the nuclear magnetic relaxation rate, usually 1/T1, as a function of the Larmor frequency or the magnetic field. This profile is also called a Nuclear Magnetic Resonance Dispersion (NMRD) profile. Compared with the NMRD profile, the prominent advantage of the ^17O NMR technique is that it allows the accurate determination of the water exchange rate 1/τM. This is a consequence of the oxygen nucleus being closer to the paramagnetic centre when bound in the inner-sphere, wherein the outer-sphere contributions to the relaxation rates are negligibly small. With the help of NMRD profiles, ^17O NMR measurements, and the Soloman-Bloemnergen-Morgan theory, several important parameters, such as τM, τR, τv, Δ^2 and τH, can be measured.
Water proton nuclear magnetic resonance dispersion NMRD profile is used to record the longitudinal water proton relaxation rates as a function of magnetic fields. The method is, in principle, sensitive to all of the parameters that influence relaxivity. […] The relaxometer worked under complete control with an absolute uncertainty in 1/T1 of ±2%. The NMRD profiles were measured using 1-2 mM solutions of the complexes.

For series [2], the system named is MIHA cells. Briefly: AO/EB staining, laser scanning confocal microscopy of cell morphology. To be noted: 10 μM, up to 24 h of incubation. It counts as cell-based. As to the method: MIHA cells in the absence (control) and presence of Gd-DOTA (10 μM), Gd-DO3A (10 μM), and GdL1 (10 μM) incubated at 37° C. and 5% CO2, 95% air in a humidified incubator for 1 h, 2 h, 8 h, and 24 h, respectively.
Based on cell morphology and cell membrane integrity, normal, necrotic, and apoptotic cells can be distinguished using laser confocal microscopy. FIG. 22 gives the cell morphology in the absence and presence of Gd-DOTA (10 μM), Gd-DO3A (10 μM), and GdL1 (10 μM) at various time intervals after the incubation. In the absence or presence of the Gd^3+ complexes, the nuclei of the living cells were stained as bright blue spots in the nucleus.

The nature of series [3]: Variable-temperature 17O NMR transverse relaxation (water exchange). The format is physicochemical. To be noted: for TM (derived from VT 17O NMR spectroscopy): 25° C., pH 6.9; for exchange lifetime τM of the inner-sphere coordinated water molecules: 298 K (25° C.), 2.12 T.
From the text: as §1
The variable-temperature ^17O NMR measurements were recorded on a JEOL EX-90 (2.1 T) spectrometer that was equipped with a 5 mm probe, by using a D2O external lock. The experimental settings were: spectral width of 10000 Hz, pulse width of 7 μs, acquisition time of 10 ms, 1000 scans, and no sample spinning. Solutions containing 2.6% of ^17O isotope were used. The observed transverse relaxation rates (R2obs^0) were calculated from the signal width at half height.

The conditions of series [4]: 20 MHz, 298 K; cited from earlier work.
For series [5] the following is noted: 298 K; cited from earlier work.
The test system of the next series is liver parenchyma. Briefly: In vivo MRI, hepatic intensity enhancement (T1-weighted). To be noted: rat. The arrangement: species or system male Sprague-Dawley (SD) rats. How it is done:
(§2) To study the MRI contrast and biodistribution behavior of gadolinium complexes […] pendant crown ethers, experiments were performed using male Sprague-Dawley (SD) rats that weighted 150-180 g, and were housed at the Wuhan Institute of Physical and Mathematics of the Chinese Academy of Sciences (Wuhan, Hubei Province, China). All procedures conformed to the institutional guidelines for animal welfare. The rat was injected via the femoral vein with 1 mL saline solution of GdL1 in concentrations of 0.1, 0.033, and 0.02 mM/kg, which are the standard dosage, one third and one fifth of the standard dosage used in clinic currently. MR imaging was performed on a 4.7 T Bruker BIO-SPEC-47/30 MRI scanner with a custom spiral surface coil. The animal was scanned in the prone position in the MRI experiment. […] The total duration of the dynamic scanning lasted up to 400 min after the administration, with an image every 4 min. A water tube was placed in the field of view as a phantom reference. The intensity enhancement (IE) of the region of interest (RI) at time point t is expressed by IE=100% (RI(t)-RI(0))/RI(0) where RI(t) corresponds to the normalized signal intensity as measured at time point, t and RI(0) is the normalized signal intensity precontrast.

For series [6] the following is noted: complex with Gd^3+; cited from earlier work.
Series [7] deals with MIHA cells. Briefly: In vitro cytotoxicity, cell proliferation assay (MTT / XTT-based). To be noted: 1×10^−2 M, 24 h incubation. As to the method:
To further investigate the potential ability of GdL1 as an NMRI contrast agent, its cytotoxicity was measured by MTT assay. The toxicity of GdL1 was determined from the dose-dependence of surviving cells after exposure to this Gd^3+ complex at different time intervals. For comparison, the cytotoxicities of Gd-DOTA and Gd-DO3A were measured under the same conditions.
To evaluate the toxicity of prepared Gd^3+ complexes, a colorimetric assay (XTT-based) for the non-radioactive quantification of cell proliferation was applied. In the cell proliferating process, the added tetrazolium salt XTT was cleaved to a formazan dye by metabolically active cells, and the quantification of cell growth was achieved by the variation of the absorbance at 492 nm. Seed MIHA Cells at a concentration of 5×10^3 cells/well (tissue culture grade, 96 wells, flat bottom) were added to Gd^3+ complexes (0.625-10 mM) in a humidified atmosphere (37° C., 6.5% CO2). Different concentrations of drugs were adjusted by performing serial dilution. The incubation period of the cell culture ranged from 1, 2, 8, and 24 hrs. XTT dye at a concentration of 5 mg/mL (sigma, St. Louis, Mo.) was added, and the plates were incubated for 12 h in a moist chamber at 37° C. The optical density was determined by eluting the dye with dimethyl sulfoxide, and the absorbance was measured at 570 nm. […]
For orientation: Tetrazolium assays rely on reduction of a dye to a coloured formazan, in cell work by metabolically active cells.

Another series concerns kidney cortex. Briefly: In vivo MRI, renal intensity enhancement (T1-weighted). On the set-up: species or system male Sprague-Dawley (SD) rats. To be noted: rat, 0.1 mmol/kg. How it is done: as §2
A short description of series [8]: Luminescence lifetime measurements of Tb complexes for hydration number q. To be noted: for kH2O, absolute emission depopulation rate constant in H2O: pH 6.9 (0.1 M Tris/HCl), 298 K, ±10%; for inner-sphere coordinated (bound) water molecules, luminescent measurements: pH 6.9. It counts as physicochemical. From the text: As previously mentioned, inner-sphere proton relaxivity is linearly proportional to the number of water molecules q that are directly coordinated to the Gd^3+ center. However, there is a trade-off between the q value and toxicity. […] It is noteworthy that there is no direct method of measuring the hydration number. The two commonly used indirect methods are as follows: (1) Lanthanide-induced shift (LIS) methods (see, Alpoim et al., J. Chem. Soc., Dalton Trans., 1992, 463). For paramagnetic Ln^3+ ions, the plot of the observed ^17O shift in Ln^3+ chelate solution versus the complex concentration gives a straight line, with the slope being proportional to its hydration number. (2) The lanthanide luminescence method. According to the Horrocks equation, the q value can be calculated by the emission rate constants for the depopulation of Tb^3+ or Eu^3+ complexes measured in H2O and D2O (see, Beeby at al., J. Chem. Soc., Perkin Trans. 2, 1999, 493). With this method, the q values of the Gd^3+ complexes in aqueous solution can be measured indirectly by their corresponding Tb^3+ or Eu^3+ complexes, because of the very similar coordination behavior between these three lanthanide ions.
Luminescence lifetime measurements were all obtained on a Perkin-Elmer LS 50B spectrofluorimeter with a 420 nm cut-off filter. The concentration of the complex was 1×10^−5˜1×10^−4 mol dm^−3. The emission of Tb^3+ or EU^3+ complexes was monitored at […]. Gd^3+ is a neighbor of Eu^3+ and Tb^3+ with a nearly identical ionic radius, and thus their chemistries are virtually identical. Therefore, the Horrocks equation for determining the number of coordinated water molecules q for Eu^3+ and Tb^3+ is still valid for the calculation of the q value of Gd^3+. In general, the number of coordinated water molecules q can be determined by the measurement of the luminescent lifetime of the complexes separately in H2O and D2O by application of the Horrocks equation.
qcorr=A(kH2O−kD2O−a)
where k is the constant for depopulation (reciprocal of luminescent lifetime), and A is a proportionality constant that signifies the sensitivity of the lanthanide ion to vibronic quenching by OH oscillators. a is correlation value for the consideration of the outer-sphere water molecules.

Regarding `O=C([O-])CN1CCNCCN(CC(=O)[O-])CCN(CC(=O)[O-])CC1.[Gd+3]` [Gd-DO3A, reference compound], the D in series [1] was 2.24E−5 cm^2s^−1. For the same molecule, the “apoptotic or necrotic cells (cell morphology, AO/EB)” value in the series with MIHA cells [2] is recorded as “no obvious apoptotic or necrotic cells were found”. In addition, in series [3], the “TM (derived from VT 17O NMR spectroscopy)” value (shortened to “TM”) turned out to be 160 ns and the “exchange lifetime τM of the inner-sphere coordinated water molecules” value (from here on “exchange lifetime τM”) is 160 ns.

In [1], `O=C([O-])CN1CCN(CC(=O)[O-])CCN(CC(=O)O)CCN(CC(=O)[O-])CC1.[Gd+3]` [Gd-DOTA, reference compound] came in with a D of 2.24E−5 cm^2s^−1. In addition, the “relaxivity r1p (typical values)” value in [4] is 4.74 mM⁻¹ s⁻¹. Moreover, the “bound water molecular resident lifetime τM (typical values)” value in series [5] is reported as “about 244 ns”. In addition, in the series on MIHA cells [2], the “apoptotic or necrotic cells (cell morphology, AO/EB)” value is “no obvious apoptotic or necrotic cells were found”. Also, in series [3], the “TM” value is recorded as 300 ns and the “exchange lifetime τM” value is 245 ns. For the same molecule, the “maximal hepatic IE” value in the series on liver parenchyma (0.02 mmol/kg (1/5 of standard dose)) is “no remarkable hepatic IE was detected”.

With `O=C([O-])CN(CCN(CC(=O)[O-])CC(=O)O)CCN(CC(=O)[O-])CC(=O)O.[Gd+3]` [Gd-DTPA], the D in series [1] was found to be 2.24E−5 cm^2s^−1. In [4], the “relaxivity r1p (typical values)” value was 4.69 mM⁻¹ s⁻¹. In addition, the “bound water molecular resident lifetime τM (typical values)” value in series [5] is roughly 303 ns. Besides, in [6], the “log K (K = formation constant of the metal complex)” value is reported as 24.6. The “TM” value in [3] was determined as 250 ns.

Consider `O=C([O-])CN1CCN(CCN2CCOCCOCCOCCOCC2)CCN(CC(=O)[O-])CCN(CC(=O)[O-])CC1.[Gd+3]` [GdL1], for which, in [1], the “inner-sphere coordinated water molecules from 1H NMRD profiles” value is “two” and the D is recorded as 2.24E−5 cm^2s^−1. In addition, the “viability of the MIHA cells” value in the series with MIHA cells [7] was “not affected obviously”. In the series on kidney cortex, the “renal IE still preserved 250 minutes after injection” value is 40%. The “apoptotic or necrotic cells (cell morphology, AO/EB)” value in the series on MIHA cells [2] is reported as “no obvious apoptotic or necrotic cells were found”. In series [3], the “TM” value is 55 ns and the “exchange lifetime τM” value is 55 ns. Further, in the series on liver parenchyma (0.03 mmol/kg), the “time after injection of maximal hepatic IE” value lay within 60 to 100 min. Also, the “hepatic IE on plateau” value in the series on liver parenchyma (0.033 mmol/kg) is listed as greater than 60%. The “resident lifetime in hepatic tissue” value in the series on liver parenchyma (0.1 mmol/kg) is recorded as greater than 4 h.

For the molecule `O=C([O-])CN1CCN(CCOCC2COCCOCCOCCOCCO2)CCN(CC(=O)[O-])CCN(CC(=O)[O-])CC1.[Gd+3]` (stereo not drawn) [GdL2], the “overall relaxivity r1p” value in series [1] (20 MHz, pH 10.0) amounted to 4.21 mM⁻¹ s⁻¹. The D in series [1] was 2.24E−5 cm^2s^−1. For the same molecule, in series [3], the “TM” value came to 116 ns and the “exchange lifetime τM” value was determined as 116 ns. In the series on liver parenchyma (0.1 mmol/kg), the “level of hepatic enhancement maintained for more than 4 h” value is listed as greater than 60% and the “time for which hepatic intensity enhancement was maintained” value is “more than 4 h”.

`O=C([O-])CN1CCN(CC(=O)[O-])CCN(CC(=O)N2CCOCCOCCN(Cc3ccc4ccccc4n3)CCOCCOCC2)CCN(CC(=O)[O-])CC1.[Gd+3]` [GdL3]: in series [1], the “reorientation lifetime τR” value stood at 210 ps and the D is 2.24E−5 cm^2s^−1. Moreover, the “q from NMRD profile” value in [1] (pH 7.5) is 1. Moreover, in [3], the “TM” value came to 246 ns and the “exchange lifetime τM” value amounted to 246 ns. Also, in the series on liver parenchyma (0.1 mmol/kg), the “level of hepatic enhancement maintained for more than 4 h” value is on record as “about 50%” and the “time for which hepatic intensity enhancement was maintained” value is given as “more than 4 h”.

With `O=C([O-])CN1CCNCCN(CC(=O)[O-])CCN(CC(=O)[O-])CC1.[Tb+3]` [Tb-DO3A, reference compound], in series [8], the “kH2O, absolute emission depopulation rate constant in H2O” value (shortened to “kH2O … in H2O”) is 0.88 ms^−1.

Regarding `O=C([O-])CN1CCN(CC(=O)[O-])CCN(CC(=O)[O-])CCN(CC(=O)[O-])CC1.[Tb+3]` [Tb-DOTA, reference compound], the “kH2O … in H2O” value in series [8] was 0.48 ms^−1.

For the molecule `O=C([O-])CN1CCN(CCN2CCOCCOCCOCCOCC2)CCN(CC(=O)[O-])CCN(CC(=O)[O-])CC1.[Tb+3]` [TbL1], in series [8], the “inner-sphere coordinated (bound) water molecules, luminescent measurements” value is “two” and the “kH2O … in H2O” value is listed as 0.72 ms^−1.

For the molecule `O=C([O-])CN1CCN(CC(=O)[O-])CCN(CC(=O)N2CCOCCOCCN(Cc3ccc4ccccc4n3)CCOCCOCC2)CCN(CC(=O)[O-])CC1.[Tb+3]` [TbL3], in series [8], the “inner-sphere coordinated (bound) water molecules, luminescent measurements” value is recorded as “only one” and the “kH2O … in H2O” value turned out to be 0.50 ms^−1.
